Consider 20 compounds from patent publication US6069172A, “(R)-2-(3-benzoylphenyl) propionic acid salts and pharmaceutical preparations containing them” (priority 1998, dated 2000).

In data set [1] the test system is carrageenin-induced pleural exudate; PMN cell migration. To be noted: oral, cited from earlier work; for migration of cells into the pleural cavity: PMN cells vs monocytes, thought in 1975.
A short description of data set [2]: gastric ulcer-inducing properties in rats (ulcer score). The class given is in vivo. Conditions: 40 mmoles/kg; rat. The text has this: Guinea-pigs are a species naturally resistant to the gastrolesive action of NSAIDs, so that it is not possible to compare the two enantiomers in respect to this parameter in this species, unless using very high doses, having no predictive value. To this purpose, rats are necessarily, again, the chosen species, although the least suitable. […] The differences among the enantiomers and the racemate were statistically significant starting from the dose of […]: at this dose an "ulcer score" of 2 was evaluated for the (R) enantiomer, compared with "ulcer scores" of 3 and 4 for the racemate and the (S) enantiomer, respectively.

Data set [3] concerns oedema formation.
Another data set relates to hyperalgesia. The experiment in a line: animal or person. To be noted: for inhibitory effect on hyperalgesia: 25 to 750 mmoles/kg. The text has this: In order to predict the therapeutic effect of the racemates in men, it is necessary to know how much the single enantiomers contribute to the global activity, using experimental models excluding metabolic bio-conversion. […] This model allows the contemporary evaluation of the inhibition of oedema formation and of hyperalgesia.

The subject of data set [4] is mouse peritoneal macrophages. The experiment in a line: lipopolysaccharide-stimulated IL-1b release from mouse peritoneal macrophages. The class given is cell-based. Conditions: Mus musculus, Peritoneal macrophage, read-out: concentration of statistically significant stimulation of IL-1b formation.
The subject of data set [5] is interleukin IL-8 production. Conditions: reduced from 53.8 pg/ml, p<0.1, cited from earlier work.
Data set [6] relates to ultra-violet radiation-induced epidermal erythema. Conditions: topic; guinea pigs; cited from earlier work.
The test system of another data set is TXB2 synthesis. The experiment in a line: TXB2 synthesis inhibition in human blood. Conditions: index of platelet antiaggregating properties. The class given is cell-based.
The test system of the next data set is pain perception. Conditions: men; compared with (S) enantiomers; cited from earlier work.
For data set [7] the following is noted: guinea-pigs; cited from earlier work.
For data set [8] the following is noted: rats; in words; cited from earlier work.
The conditions of data set [9]: men, cited from earlier work.
For a further data set, the system named is Neutrophils. Conditions: 10^-6 M, 10 min 37° C; FIG. 2, ** p<0.01.
The subject of data set [10] is Ca^++ channels, human PMN neutrophils. The experiment in a line: competition study with lanthanum ions: [Ca^++ ]i increase induced by IL-8, role of Ca^++ channels. The class given is cell-based. Conditions: ketoprofen L-lysine salt 10^-8 M; La^+++ 10 μM; IL-8 50 ng/ml; % of basal (100%). The procedure: Results reported in Table 2 are the cumulative values from 3 trials (3 donors, 3-7 cells per specimen). […] Responses are expressed as percent of basal [Ca^++ ]i value and are the mean from the values of all responsive cells. Standard error of the mean (SEM) and number of replications (in brackets) are also reported. […] The concentration of ketoprofen L-lysine salt was 10^-8 M, that of La^+++ 10 μM, and that of IL-8 50 ng/ml.

Data set [11] has as its system human PMN neutrophils. The experiment in a line: [Ca^++ ]i increase induced by FMLP in human PMN neutrophils. It is filed as cell-based. To be noted: FLMP 10^-7 M; % of basal (100%); no treatment 208 ± 7. From the text:
(§1) Results are expressed as percent of the basal value of [Ca^++ ]i and are the mean from the values of all responsive cells. Standard error of the mean (SEM) and number of replications (n, in brackets) are also reported.

For data set [12], the system named is human PMN neutrophils. The experiment in a line: IL-8-stimulated human PMN neutrophil degranulation (elastase release), FIG. 1. It is filed as cell-based. Conditions: IL-8 50 ng/ml, cytoclasin B 10^-5 M, 30 min 37° C; FIG. 1, ** p<0.05 against IL-8. The procedure:
Human PMN neutrophils (10^7 /ml) were stimulated in the presence of cytoclasin B (10^-5 M) by adding IL-8 (50 ng/ml) and incubating them for 30 min at 37° C. La^+++ was added 5 min before IL-8 and the lysine salts of (R)- and (S)-ketoprofen 15 min before IL-8. Degranulation was evaluated based on the amount of elastase released in the cell-free surnatant and is expressed as DOD×10^3 /min.

The test system of data set [13] is oedema formation. The experiment in a line: animal or person. Conditions: Cavia porcellus, read-out: dose from which oedema inhibition is statistically significant.
Data set [14] relates to human PMN neutrophils. The experiment in a line: [Ca^++ ]i increase induced by C5a in human PMN neutrophils. It is filed as cell-based.
Description: as §1

The test system of the next data set is human PMN leukocytes. The experiment in a line: [Ca^++ ]i increase induced by IL-8 in human PMN leukocytes. The class given is cell-based. Conditions: IL-8 50 ng/ml, % of basal [Ca^++ ]i (basal 100%), no drug 302 ± 11. As for the experimental part: The results reported in Table 1 are cumulative data obtained from 8 trials (8 donors who gave their explicit consent, 3 to 7 cells per specimen). […] The responses, expressed as percent of basal value of [Ca^++ ]i, are the mean from all responsive cells; standard error of the mean (±SEM) and number of replications (in brackets) are also reported. […] IL-8 concentration was 50 ng/ml.

The next data set has as its system PMN neutrophils. To be noted: FLMP-stimulated vs other agonist-stimulated; cited from earlier work.
The next data set has as its system MCP-1 and IL-8 release. To be noted: comparative study; cited from earlier work.
The next data set concerns neutrophil. Conditions: Ca^++ ionophore and FLMP; cited from earlier work.
The subject of the next data set is human synovial cells. Conditions: stimulated by interleukin-1 and TNF-a; cited from earlier work.

Molecules are shown by their SMILES. Structures can show the parent of a compound that is named as a salt. Where two headings read alike, the source gives them in different places.

For `CC(C(=O)O)c1ccc(-c2ccccc2)c(F)c1` (racemic) [flurbiprofen, 3-fluoro-4-phenylhydratropic acid], in data set [1], the “migration of cells into the pleural cavity” value is on record as “inhibit the migration of PMN cells, but not that of monocytes” and the “carrageenin-induced formation of pleural exudate” value (shortened to “carrageenin-induced formation”) is “inhibited”.

`CC(C(=O)O)c1cccc(C(=O)c2ccccc2)c1` (racemic) [racemic ketoprofen L-lysine salt]: the ulcer score in data set [2] was determined as 3. In addition, the “inhibition of oedema formation” value with oedema formation [3] (25 to 750 mmoles/kg) was “constantly intermediate between those evaluated for the two enantiomers”. For the same compound, the “inhibitory effect on hyperalgesia” value in the data set on hyperalgesia was “constantly intermediate between those evaluated for the two enantiomers”. Further, the minimal effective concentration in data set [4] is 10 µM.

As to `CC(C(=O)O)c1cccc(C(=O)c2ccccc2)c1` (racemic) [racemic ketoprofen], the “interleukin IL-8 production” value was 16.9 pg/mL in data set [5] (100 mg/kg) and 22.4 pg/mL in data set [5] (200 mg/kg). In addition, the “Protection, UV radiation-induced epidermal erythema” value in [6] is on record as 56.1±3.1%. Also, the half-maximal inhibitory concentration (IC50) (commonly the concentration that inhibits the measured activity by half) in the data set on TXB2 synthesis is 420 ± 40 µM.

On to `C[C@@H](C(=O)O)c1ccc(-c2ccccc2)c(F)c1` [(R)-flurbiprofen, 3-fluoro-4-phenylhydratropic acid], for which, in the data set with pain perception, the “inhibition of pain perception” value is on record as “efficacy at least similar to that of the (S) enantiomers”. The “conversion of (R) into (S) enantiomer” value is reported as less than 5% in data set [7], “completely converted” in data set [8] and less than 5% in [9].

For the compound `CC(C)Cc1ccc([C@@H](C)C(=O)O)cc1` [(R)-ibuprofen, p-isobutylhydratropic acid], the “conversion of (R) into (S) enantiomer” value in [8] and in data set [9] (in words) was “nearly completely converted” each time.

For the compound `C[C@H](C(=O)O)c1cccc(C(=O)c2ccccc2)c1` [(S)-ketoprofen L-lysine salt], in data set [2], the ulcer score stood at 4. Moreover, the “dose of maximal effect on oedema formation” value with oedema formation [3] (dose range 25 to 750 mmoles/kg) amounted to 250 mmol/kg. Moreover, in the data set on Neutrophils, the “inhibitory effect on IL-8-stimulated chemotactic migration” value was “specific inhibitory effects”. For the same compound, the “inhibitory effect on hyperalgesia” value in the data set on hyperalgesia is listed as “only a slight inhibitory effect on hyperalgesia”. The minimal effective dose came out at 750000 µmol/kg in the data set on hyperalgesia (Cavia porcellus, read-out: dose with statistically significant inhibition of hyperalgesia) and 75000 µmol/kg in the data set on oedema formation [13]. Also, the “La^+++ + IL-8 [Ca^++ ]i (% ± SEM)” value in data set [10] was determined as 166 ± 7%. Moreover, the “FMLP [Ca^++ ]i (% ± SEM)” value in the data set on human PMN neutrophils [11] worked out at 214 ± 13%. The “inhibitory effect on human PMN neutrophil degranulation (elastase release)” value in the data set on human PMN neutrophils [12] is recorded as “specific inhibitory effects”. Moreover, in the data set with human PMN neutrophils [14] (C5a 10^-8 M, % of basal (100%), no treatment 198 ± 10), the “C5a [Ca^++ ]i (% ± SEM)” value stood at 150 ± 4%. Moreover, the “percent of non responsive cells” value with human PMN neutrophils [14] (C5a stimulation and treatment with the L-lysine salts) came to 50%. In addition, the “[Ca^++ ]i (% ± SEM)” value with human PMN leukocytes (drug 10^-6 M) worked out at 163 ± 18%; in the data set on human PMN leukocytes (drug 10^-7 M), 199 ± 13%; in the data set with human PMN leukocytes (drug 10^-8 M), 183 ± 5%; with human PMN leukocytes (drug 10^-9 M) it was 289 ± 19%. In addition, the minimal effective concentration in data set [4] is 10 µM.

Turning to `C[C@H](C(=O)O)c1cccc(C(=O)c2ccccc2)c1` [(S)-ketoprofen], in data set [6], the “Protection, UV radiation-induced epidermal erythema” value is recorded as 73.4±4.0%. Inhibition in the data set with TXB2 synthesis was half-maximal at 160 ± 40 µM (IC50).

In the case of `CC(C)C[C@H](NC(=O)OCC1c2ccccc2-c2ccccc21)C(=O)O` [NPC-15669, N-Fmoc-L-leucine], the “[Ca^++ ]i increase in PMN neutrophils” value with PMN neutrophils was “inhibited FLMP-stimulated, but not other agonist-stimulated [Ca^++ ]i increase”.

Turning to `C[C@@H]1C[C@H]2[C@@H]3CCC4=CC(=O)C=C[C@]4(C)[C@@]3(F)[C@@H](O)C[C@]2(C)[C@@]1(O)C(=O)CO` [dexamethasone], the “inhibition of release of MCP-1 and IL-8” value in the data set on MCP-1 and IL-8 release is “in an optimal manner”.

As to `CC(C(=O)O)c1cccc(Oc2ccccc2)c1` (stereo not drawn) [fenofren], in data set [1], the “migration of cells into the pleural cavity” value is reported as “inhibit the migration of PMN cells, but not that of monocytes” and the “carrageenin-induced formation” value is “inhibited”.

`O=C(O)c1ccccc1Nc1cccc(C(F)(F)F)c1` [flufenamic acid]: the “inhibition of neutrophil activation / blockade of Ca^++ ion entry” value with neutrophil is “inhibition of neutrophil activation”.

On to `COc1ccc2c(c1)c(CC(=O)O)c(C)n2C(=O)c1ccc(Cl)cc1` [indomethacin], for which the “IL-8 production in human synovial cells” value in the data set on human synovial cells is on record as “not inhibited”. Besides, in [1], the “migration of cells into the pleural cavity” value is “inhibit the migration of PMN cells, but not that of monocytes” and the “carrageenin-induced formation” value is recorded as “inhibited”.

For `CN(Cc1cnc2nc(N)nc(N)c2n1)c1ccc(C(=O)N[C@@H](CCC(=O)O)C(=O)O)cc1` [metotrexate], the “inhibition of release of MCP-1 and IL-8” value in the data set with MCP-1 and IL-8 release was “in a sub-optimal manner”.

For `COc1ccc2cc([C@H](C)C(=O)O)ccc2c1` [naproxen], the “IL-8 production in human synovial cells” value in the data set with human synovial cells is “not inhibited”.

Turning to `COC(=O)C1=C(C)NC(C)=C(C(=O)OC)C1c1ccccc1[N+](=O)[O-]` [nifedipine], the “inhibition of neutrophil activation / blockade of Ca^++ ion entry” value in the data set on neutrophil is “completely inactive”.

Turning to `CN1C(C(=O)Nc2ccccn2)=C(O)c2ccccc2S1(=O)=O` [piroxicam], the “IL-8 production in human synovial cells” value in the data set with human synovial cells is given as “not inhibited”.

Regarding `O=C([O-])CC(S)C(=O)[O-].[Na+].[Na+]` (stereo not drawn) [sodium thiomalate], the “inhibition of release of MCP-1 and IL-8” value in the data set on MCP-1 and IL-8 release is “in a sub-optimal manner”.

In the case of `CN1C(C(=O)Nc2nccs2)=C(O)c2ccccc2S1(=O)=O` [sudoxicam], in [1], the “migration of cells into the pleural cavity” value was “inhibit the migration of PMN cells, but not that of monocytes” and the “carrageenin-induced formation” value is reported as “inhibited”.

Take `CC(C(=O)O)c1ccc(C(=O)c2ccccc2)s1` (stereo not drawn) [thioprofenic acid]: the “IL-8 production in human synovial cells” value with human synovial cells is on record as “not inhibited”.

`Cc1c(Cl)cccc1Nc1ccccc1C(=O)O` [tolfenamic acid]: the “inhibition of neutrophil activation / blockade of Ca^++ ion entry” value in the data set on neutrophil was “inhibition of neutrophil activation”.
